Laboratory results reported in PubChem BioAssay AID256 (DTP/NCI, 2004).
“And” between values parts separate entries of the source, which are not always exact repeats. Equal entries are not always repeated. Inconclusive results and toxic doses are left out. Rule for the calls: active = survival T/C of 150% or more; inactive = T/C below 125% in these data.

Test system: CD2F1 mice, L1210 leukemia ip, survival T/C
Test: NCI In Vivo Anticancer Drug Screen. Data for tumor model L1210 Leukemia (intraperitoneal) in CD2F1 (CDF1) mice
Conditions: higher = longer survival
Summary of the method: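 Read-out first: treated-group measurement over vehicle-control measurement, expressed as a ratio. Animals bore a transplanted tumor line and were dosed with compound or vehicle.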

[1] = endpoint: mean survival time, dose: 100.0 mg/kg/injection, schedule: Q04DX003 (ip), vehicle: saline with Tween-80
[2] = endpoint: mean survival time, dose: 200.0 mg/kg/injection, schedule: Q04DX003 (ip), vehicle: saline with Tween-80
[3] = endpoint: mean survival time, dose: 400.0 mg/kg/injection, schedule: Q04DX003 (ip), vehicle: saline with Tween-80
[4] = endpoint: mean survival time, dose: 75.0 mg/kg/injection, schedule: Q01DX001 (ip), vehicle: saline
[5] = endpoint: mean survival time, dose: 150.0 mg/kg/injection, schedule: Q01DX001 (ip), vehicle: saline
[6] = endpoint: mean survival time, dose: 12.5 mg/kg/injection, schedule: Q01DX009 (ip), vehicle: saline with Tween-80
[7] = endpoint: mean survival time, dose: 25.0 mg/kg/injection, schedule: Q01DX009 (ip), vehicle: saline with Tween-80
[8] = endpoint: mean survival time, dose: 100.0 mg/kg/injection, schedule: Q01DX009 (ip), vehicle: Klucel (hydroxypropylcellulose) (HPC)
[9] = endpoint: mean survival time, dose: 200.0 mg/kg/injection, schedule: Q01DX009 (ip), vehicle: Klucel (hydroxypropylcellulose) (HPC)
[10] = endpoint: mean survival time, dose: 400.0 mg/kg/injection, schedule: Q01DX009 (ip), vehicle: Klucel (hydroxypropylcellulose) (HPC)

Measured: T/C

O=CC(O)CO (stereo not given)
inactive: endpoint: median survival time, dose: 129.6 mg/kg/injection, schedule: Q ##X015 (sc), vehicle: saline 109 % of control | endpoint: median survival time, dose: 129.6 mg/kg/injection, schedule: Q## X015 (sc), vehicle: saline 112 % of control | endpoint: median survival time, dose: 216.0 mg/kg/injection, schedule: Q ##X015 (sc), vehicle: saline 108 % of control | endpoint: median survival time, dose: 216.0 mg/kg/injection, schedule: Q## X015 (sc), vehicle: saline 112 % of control | endpoint: median survival time, dose: 360.0 mg/kg/injection, schedule: Q ##X015 (sc), vehicle: saline 119 % of control | endpoint: median survival time, dose: 360.0 mg/kg/injection, schedule: Q## X015 (sc), vehicle: saline 118 % of control | endpoint: median survival time, dose: 600.0 mg/kg/injection, schedule: Q ##X015 (sc), vehicle: saline 110 % of control | endpoint: median survival time, dose: 600.0 mg/kg/injection, schedule: Q## X015 (sc), vehicle: saline 112 % of control

NC(CCC(=O)c1ccccn1)C(=O)O (stereo not given)
inactive: endpoint: mean survival time, dose: 50.0 mg/kg/injection, schedule: Q01DX009 (ip), vehicle: saline 96 % of control | endpoint: mean survival time, dose: 100.0 mg/kg/injection, schedule: Q01DX009 (ip), vehicle: saline 96 % of control | endpoint: mean survival time, dose: 100.0 mg/kg/injection, schedule: Q04DX003 (ip), vehicle: saline 96 % of control | endpoint: mean survival time, dose: 200.0 mg/kg/injection, schedule: Q01DX009 (ip), vehicle: saline 100 % of control | endpoint: mean survival time, dose: 200.0 mg/kg/injection, schedule: Q04DX003 (ip), vehicle: saline 98 % of control

COC(=O)C1C2CC(C(Br)C2Br)C1C(=O)O (stereo not given)
inactive: endpoint: mean survival time, dose: 100.0 mg/kg/injection, schedule: Q01DX009 (ip), vehicle: saline with Tween-80 96 % of control | [1] 96 % of control | endpoint: mean survival time, dose: 200.0 mg/kg/injection, schedule: Q01DX009 (ip), vehicle: saline with Tween-80 98 % of control | [2] 96 % of control and 94 % of control | endpoint: mean survival time, dose: 400.0 mg/kg/injection, schedule: Q01DX009 (ip), vehicle: saline with Tween-80 97 % of control | [3] 88 % of control and 98 % of control

O=C1C=C(Nc2ccc([N+](=O)[O-])cc2Cl)c2ccccc2C1=O
inactive: [4] 100 % of control | [5] 101 % of control | endpoint: mean survival time, dose: 300.0 mg/kg/injection, schedule: Q01DX001 (ip), vehicle: saline 112 % of control

CC(C)(O)C(Cl)S(=O)c1ccccc1 (stereo not given)
inactive: endpoint: mean survival time, dose: 37.5 mg/kg/injection, schedule: Q04DX003 (ip), vehicle: saline with Tween-80 100 % of control | endpoint: mean survival time, dose: 75.0 mg/kg/injection, schedule: Q04DX003 (ip), vehicle: saline with Tween-80 100 % of control | endpoint: mean survival time, dose: 85.0 mg/kg/injection, schedule: Q04DX002 (ip), vehicle: saline with Tween-80 88 % of control | endpoint: mean survival time, dose: 150.0 mg/kg/injection, schedule: Q04DX003 (ip), vehicle: saline with Tween-80 103 % of control | endpoint: mean survival time, dose: 190.0 mg/kg/injection, schedule: Q04DX002 (ip), vehicle: saline with Tween-80 90 % of control | endpoint: mean survival time, dose: 300.0 mg/kg/injection, schedule: Q04DX003 (ip), vehicle: saline with Tween-80 102 % of control

NC(=S)N/N=C1/CCN2CCCc3cccc1c32
inactive: endpoint: mean survival time, dose: 5.0 mg/kg/injection, schedule: Q01DX001 (ip), vehicle: saline with Tween-80 98 % of control | endpoint: mean survival time, dose: 10.0 mg/kg/injection, schedule: Q01DX001 (ip), vehicle: saline with Tween-80 97 % of control | endpoint: mean survival time, dose: 20.0 mg/kg/injection, schedule: Q01DX001 (ip), vehicle: saline with Tween-80 98 % of control

COc1cc2c(ccc3cc4cccc[n+]4cc32)c(Br)c1OC
inactive: [6] 98 % of control | endpoint: mean survival time, dose: 12.5 mg/kg/injection, schedule: Q04DX003 (ip), vehicle: saline sonified 97 % of control | [7] 100 % of control | endpoint: mean survival time, dose: 25.0 mg/kg/injection, schedule: Q04DX003 (ip), vehicle: saline sonified 97 % of control | endpoint: mean survival time, dose: 50.0 mg/kg/injection, schedule: Q01DX009 (ip), vehicle: saline with Tween-80 100 % of control | endpoint: mean survival time, dose: 50.0 mg/kg/injection, schedule: Q04DX003 (ip), vehicle: saline sonified 103 % of control

COC(=O)CC(O)(CCCC(C)(C)O)C(=O)OC1C(OC)=CC23CCCN2CCc2cc4c(cc2C13)OCO4 (stereo not given) (tested in a mixture with another compound)
inactive: endpoint: mean survival time, dose: 0.25 mg/kg/injection, schedule: Q01DX009 (ip), vehicle: saline with Tween-80 112 % of control | endpoint: mean survival time, dose: 0.5 mg/kg/injection, schedule: Q01DX009 (ip), vehicle: saline with Tween-80 115 % of control | endpoint: mean survival time, dose: 1.0 mg/kg/injection, schedule: Q01DX009 (ip), vehicle: saline with Tween-80 115 % of control | endpoint: mean survival time, dose: 2.0 mg/kg/injection, schedule: Q01DX009 (ip), vehicle: saline with Tween-80 124 % of control

CCOC(=O)C1CC(c2ccccc2)=NN1c1ccccc1 (stereo not given)
inactive: endpoint: mean survival time, dose: 12.5 mg/kg/injection, schedule: Q01DX009 (ip), vehicle: Klucel (hydroxypropylcellulose) (HPC) 95 % of control | endpoint: mean survival time, dose: 25.0 mg/kg/injection, schedule: Q01DX009 (ip), vehicle: Klucel (hydroxypropylcellulose) (HPC) 101 % of control | endpoint: mean survival time, dose: 50.0 mg/kg/injection, schedule: Q01DX009 (ip), vehicle: Klucel (hydroxypropylcellulose) (HPC) 102 % of control | [8] 101 % of control | [9] 95 % of control | [10] 98 % of control

CC(=O)OC1CC2CC1C1C=CCC21 (stereo not given)
inactive: endpoint: mean survival time, dose: 100.0 mg/kg/injection, schedule: Q01DX001 (ip), vehicle: saline with Tween-80 97 % of control | endpoint: mean survival time, dose: 200.0 mg/kg/injection, schedule: Q01DX001 (ip), vehicle: saline with Tween-80 95 % of control | endpoint: mean survival time, dose: 400.0 mg/kg/injection, schedule: Q01DX001 (ip), vehicle: saline with Tween-80 100 % of control

O=[N+]([O-])c1ccc2c(c1)-c1[nH]c3ccccc3c1CS2
inactive: [8] 102 % of control | [9] 101 % of control

OCC1OC(n2cc(I)c3c(Cl)ncnc32)C(O)C1O (stereo not given)
inactive: endpoint: mean survival time, dose: 100.0 mg/kg/injection, schedule: Q01DX001 (ip), vehicle: saline 98 % of control | endpoint: mean survival time, dose: 200.0 mg/kg/injection, schedule: Q01DX001 (ip), vehicle: saline 110 % of control | endpoint: mean survival time, dose: 400.0 mg/kg/injection, schedule: Q01DX001 (ip), vehicle: saline 110 % of control

N#CCCCN1CCCCCC1
inactive: [1] 97 % of control

CN(C)CCC(C#N)(c1ccccc1)c1ccccc1
inactive: [4] 102 % of control | [5] 100 % of control

O=C(CBr)c1ccccc1
inactive: endpoint: mean survival time, dose: 5.0 mg/kg/injection, schedule: Q01DX009 (ip), vehicle: saline with Tween-80 97 % of control | endpoint: mean survival time, dose: 10.0 mg/kg/injection, schedule: Q01DX009 (ip), vehicle: saline with Tween-80 93 % of control

CSC(=N/N=C/c1ccccc1O)SC
inactive: [1] 98 % of control | [2] 96 % of control | [3] 96 % of control

c1ccc2c[n+]3cc4ccccc4cc3cc2c1
inactive: endpoint: mean survival time, dose: 12.5 mg/kg/injection, schedule: Q04DX003 (ip), vehicle: saline 104 % of control | endpoint: mean survival time, dose: 25.0 mg/kg/injection, schedule: Q04DX003 (ip), vehicle: saline 97 % of control

C=CCCCCCCCCC(=O)N(CCOC)CCOC
inactive: [1] 93 % of control | [2] 94 % of control | [3] 98 % of control

Nc1n[nH]c2cc(=O)[nH]c(O)c12
inactive: endpoint: mean survival time, dose: 75.0 mg/kg/injection, schedule: Q01DX009 (ip), vehicle: saline 97 % of control | endpoint: mean survival time, dose: 75.0 mg/kg/injection, schedule: Q04DX003 (ip), vehicle: saline 106 % of control | endpoint: mean survival time, dose: 150.0 mg/kg/injection, schedule: Q01DX009 (ip), vehicle: saline 103 % of control | endpoint: mean survival time, dose: 150.0 mg/kg/injection, schedule: Q04DX003 (ip), vehicle: saline 102 % of control | endpoint: mean survival time, dose: 300.0 mg/kg/injection, schedule: Q01DX009 (ip), vehicle: saline 111 % of control | endpoint: mean survival time, dose: 300.0 mg/kg/injection, schedule: Q04DX003 (ip), vehicle: saline 106 % of control

O=C(N/N=C/c1ccccc1Cl)c1ccccc1
inactive: [8] 103 % of control | [9] 98 % of control | [10] 107 % of control

C/C=C/C(=O)NCC(C(C)C)/[N+]([O-])=N/O (stereo not given)
inactive: endpoint: mean survival time, dose: 6.25 mg/kg/injection, schedule: Q01DX009 (ip), vehicle: saline with Tween-80 94 % of control | [6] 103 % of control | [7] 94 % of control
